{"source": "patent US20030004148A1", "about": "“Regulation of meiosis” (priority 1994, published 2003)", "key": {"denuded oocytes, DO": {"test_system": "denuded oocytes, DO", "test": "Oocyte test, denuded oocytes (DO)", "type": "cell-based, mice", "conditions": "HX-medium, 24 hours culture", "procedure": "(§1) Animals: Immature female mice (B6D2-F1, strain C57B1/2J) were kept under controlled lighting (14 hr light, 10 hr dark) and temperature, with food and water ad libitum. When the animals reached a weight of 13-16 grams (which correspond to the age of 20 to 22 days post partum) they were given a single injection (i.p.) of human menopausal gonadotropin (Humegon, Organon, The Netherlands) containing approximately 20 IU FSH and 20 IU LH (Ziebe, S. et al. Hum. Reprod. 8(1993) 385-88). 48 hours later the animals were killed by cervical dislocation.\n(§2) Collection and culture of oocytes: The ovaries were removed, placed in HX-medium (se below) and freed of extraneous tissue. The collection- and culture medium consisted of Eagles minimum essential medium (Flow, USA), containing 4 mM hypoxanthine, 3 mg/ml of bovine serum albumin, 0.23 mM sodium pyruvate, 2 mM glutamine, 100 U/ml of penicillin, and […] of streptomycin (all Sigma, USA). This medium is termed HX-medium. The same medium but without HX was used as control medium.\n(§3) The antral follicles of the ovaries were punctured under a dissecting microscope using a 27-gauge needle. Cumulus enclosed oocyte (CEO) of uniform size were selected and rinsed three times in fresh HX-medium.\n(§4) Oocytes freed from cumulus cells, i.e. denuded oocytes, DO, were obtained by gentle flushing CEO through a fine-bore mouth-controlled pipet. CEO and DO were cultured in 4-well multidishes (Nunclon, Denmark) containing 0.5 ml of HX-medium except the controls which were cultured in control medium. Each well contained 35 to 50 oocytes.\n(§5) The cultures were performed at 37° C. and 100% humidity with 5% CO2 in air. The culture time was 24 hours.\n(§6) Examination of oocytes: By the end of the culture period the number of oocytes with germinal vesicle (GV) or germinal vesicle breakdown (GVBD) and those with polar body (PB) was counted in an inverted microscope with differential interference contrast equipment. The percentage of oocytes with GVBD per total number of oocytes and the percentage of oocytes with PB per GVBD was calculated. One unit of MIS activity is defined as: [formula]\n(§7) and the number of MIS activity units is calculated as: [formula]"}, "[1]": {"test_system": "Cumulus enclosed oocyte (CEO)", "test": "Oocyte test, cumulus enclosed oocytes (CEO)", "type": "cell-based, mice", "conditions": "HX-medium, 24 hours culture", "procedure": "as §1, §2, §3, §4, §5, §6, §7"}, "[2]": {"test_system": "oocytes of isolated perfused ovaries", "test": "GVB in isolated perfused ovaries from immature rats", "set-up": "species or system Immature Sprague-Dawley rats", "conditions": "for % GVB (oocytes undergoing germinal vesicle breakdown per total oocytes per ovary), mean±sd: perfusion up to 12 h, 7 ovaries", "procedure": "Animals and Experimental Procedure: Immature Sprague-Dawley rats (body weight: 50-55 g) were injected s.c. with 20 IU pregnant mare serum gonadotropin (PMSG). 48 hours later, the rats were anesthetized with a combination of Ketavet/Rompun (105 and 8.3 mg/kg BW, respectively). Heparin sulfate (300 IU) was injected into the tail vein.\nOvaries with connecting vasculature were surgically isolated and perfusions were performed in a recirculating system (Koos RD et al. (1984) Biol Reprod 30:1135-1141) containing approximately 35 ml of perfusion medium (Medium 199 with Earle's salts supplemented with 50 μg/ml gentamycin sulfate, 0.2 IU/ml insulin, and 4% BSA).\nThe ovaries were initially perfused for approximately 1 hour to allow metabolic stabilization of the tissue. Only the ovarian specimens which maintained a flow rate between 0.8 and 1.5 ml/min at pressure of 80 mmHg during the stabilization period were used in the experiments.\nAfter 1 hour of preperfusion, the effect of 4,4-dimethyl-5^α-cholesta-8,14,24-triene-3^β-ol (FF-MAS), IBMX (iso-butyl-methyl-xanthine), LH (luteinizing hormone), and cholesterol were tested by dividing the ovarian specimens into control and experimental groups. Additions to the perfusion medium were made as follows:\nPrior to addition to the perfusion medium, FF-MAS and cholesterol were diluted in ethanol, and LH and IBMX were diluted in perfusion medium. For the investigation of meiosis, perfusions were continued up to 12 h after addition of the compounds.\nAt termination of each perfusion ovaries were dissected free from adherent tissue and oocytes isolated under a stereo microscope by manual rupture of the follicles using a pair of 27 gauge needles. Oocytes per ovary were counted and examined using Nomarski differential interference contrast optics.\nOocytes with a germinal vesicle breakdown (GVB) were regarded as undergoing meiotic maturation (Tsafiri et al. (1980) J. Reprod. Fertil. 60:399-402). The % GVB, defined as percentage of oocytes undergoing GVB per total number of oocytes in each ovary was calculated. Each experimental group consisted of 7 perfused ovaries. Data are presented as mean±sd. Statistical differences were calculated by one-way ANOVA followed by Students's t-test. P-values<0.05 indicated a statistically significant higher % GVB in treated groups compared to the control."}}, "data": [{"smiles": "CC(=O)OC1CC[C@]2(C)C3=C(CCC2C1(C)C)C1=CC[C@H]([C@H](C)CCCC(C)C)[C@@]1(C)CC3", "note": "(some centres unmarked)", "values": [{"measurement": "melting point", "result": "120 to 125", "unit": "°C"}]}, {"smiles": "CC(C)=CCC[C@@H](C)[C@H]1CC[C@H]2C3=C(CC[C@]12C)[C@@]1(C)CC[C@H](O)C(C)(C)[C@@H]1CC3", "note": "[4,4-Dimethyl-zymosterol, 4,4-dimethyl-^5α-cholesta-8,24-diene-^3β-ol]", "values": [{"measurement": "DO, units of MIS activity", "setting": "denuded oocytes, DO; 0.002 μg/ml", "result": "0.9 units of MIS activity"}, {"measurement": "DO, units of MIS activity", "setting": "denuded oocytes, DO; 0.02 μg/ml", "result": "1.5 units of MIS activity"}, {"measurement": "DO, units of MIS activity", "setting": "denuded oocytes, DO; 0.2 μg/ml", "result": "0.6 units of MIS activity"}, {"measurement": "DO, units of MIS activity", "setting": "denuded oocytes, DO; 0.3 μg/ml", "result": "1.8 units of MIS activity"}, {"measurement": "DO, units of MIS activity", "setting": "denuded oocytes, DO; 1.2 μg/ml", "result": "2.7 units of MIS activity"}, {"measurement": "CEO, units of MIS activity", "setting": "[1]; 0.002 μg/ml", "result": "1.0 units of MIS activity"}, {"measurement": "CEO, units of MIS activity", "setting": "[1]; 0.02 μg/ml", "result": "1.3 units of MIS activity"}, {"measurement": "CEO, units of MIS activity", "setting": "[1]; 0.2 μg/ml", "result": "1.3 units of MIS activity"}, {"measurement": "CEO, units of MIS activity", "setting": "[1]; 0.3 μg/ml", "result": "2.7 units of MIS activity"}, {"measurement": "CEO, units of MIS activity", "setting": "[1]; 1.2 μg/ml", "result": "2.9 units of MIS activity"}]}, {"smiles": "CC(C)CCC[C@@H](C)[C@H]1CC[C@H]2C3=C(CC[C@]12C)[C@@]1(C)CC[C@H](O)C(C)(C)C1CC3", "note": "(stereo partly drawn) [4,4-Dimethylcholest-8-ene-^3β-ol]", "values": [{"measurement": "DO, units of MIS activity", "setting": "denuded oocytes, DO; 0.03 μg/ml", "result": "0.8 units of MIS activity"}, {"measurement": "CEO, units of MIS activity", "setting": "[1]; 0.03 μg/ml", "result": "12.8 units of MIS activity"}]}, {"smiles": "CC(C)CCC[C@@H](C)[C@H]1CC=C2C3=C(CC[C@@]21C)[C@@]1(C)CC[C@H](O)C(C)(C)C1CC3", "note": "(stereo partly drawn) [4,4-Dimethylcholesta-8,14-dien-^3β-ol, 4,4-Dimethylcholesta-8,14-Dien-^3β-ol]", "values": [{"measurement": "DO, units of MIS activity", "setting": "denuded oocytes, DO; 3.0 μg/ml", "result": "2.25 units of MIS activity"}, {"measurement": "CEO, units of MIS activity", "setting": "[1]; 3.0 μg/ml", "result": "0 units of MIS activity"}]}, {"smiles": "CC(C)=CCC[C@@H](C)[C@H]1CC=C2C3=C(CC[C@@]21C)[C@@]1(C)CC[C@H](O)C(C)(C)[C@@H]1CC3", "note": "[4,4-dimethyl-^5α-cholesta-8,14,24-triene-^3β-ol]", "values": [{"measurement": "DO, units of MIS activity", "setting": "denuded oocytes, DO; 0.03 μg/ml", "result": "1.6 units of MIS activity"}, {"measurement": "DO, units of MIS activity", "setting": "denuded oocytes, DO; 0.3 μg/ml", "result": "0.6 units of MIS activity"}, {"measurement": "% GVB (oocytes undergoing germinal vesicle breakdown per total oocytes per ovary), mean±sd", "setting": "[2]; 30 μM with 0.2 mM IBMX", "result": "14.6±4.2", "unit": "%"}, {"measurement": "% GVB (oocytes undergoing germinal vesicle breakdown per total oocytes per ovary), mean±sd", "setting": "[2]; 60 μM with 0.2 mM IBMX", "result": "66.9±7.4", "unit": "%"}, {"measurement": "effective dose", "setting": "[2]; corresponds to the effective 30-60 μM in perfused rat ovaries", "result": "12-24 mg/liter bood volume"}, {"measurement": "CEO, units of MIS activity", "setting": "[1]; 0.03 μg/ml", "result": "0.5 units of MIS activity"}, {"measurement": "CEO, units of MIS activity", "setting": "[1]; 0.3 μg/ml", "result": "2.3 units of MIS activity"}]}, {"smiles": "CC(C)=CCC[C@@H](C)[C@H]1CC[C@H]2C3=C(CC[C@]12C)[C@@]1(C)CC[C@H](O)C[C@@H]1CC3", "note": "[Zymosterol]", "values": [{"measurement": "DO, units of MIS activity", "setting": "denuded oocytes, DO; 0.01 μg/ml", "result": "0.6 units of MIS activity"}, {"measurement": "DO, units of MIS activity", "setting": "denuded oocytes, DO; 0.1 μg/ml", "result": "1.2 units of MIS activity"}, {"measurement": "CEO, units of MIS activity", "setting": "[1]; 0.001 μg/ml", "result": "0.2 units of MIS activity"}, {"measurement": "CEO, units of MIS activity", "setting": "[1]; 0.01 μg/ml", "result": "0.4 units of MIS activity"}, {"measurement": "CEO, units of MIS activity", "setting": "[1]; 0.1 μg/ml", "result": "1.1 units of MIS activity"}]}, {"smiles": "CC(C)=CCC[C@@H](C)[C@H]1CC[C@H]2C3=C(CC[C@]12C)[C@@]1(C)CC[C@H](O)[C@H](C)[C@@H]1CC3", "note": "[^4β-Methylzymosterol, 4^β-Methylzymosterol]", "values": [{"measurement": "DO, units of MIS activity", "setting": "denuded oocytes, DO; 0.13 μg/ml", "result": "0.8 units of MIS activity"}, {"measurement": "DO, units of MIS activity", "setting": "denuded oocytes, DO; 3.9 μg/ml", "result": "6.2 units of MIS activity"}, {"measurement": "CEO, units of MIS activity", "setting": "[1]; 0.13 μg/ml", "result": "2.4 units of MIS activity"}, {"measurement": "CEO, units of MIS activity", "setting": "[1]; 3.9 μg/ml", "result": "3.5 units of MIS activity"}]}, {"smiles": "CC(C)CCC[C@@H](C)[C@H]1CC[C@H]2[C@@H]3CC=C4C[C@@H](O)CC[C@]4(C)[C@H]3CC[C@]12C", "note": "[cholesterol, reference compound]", "values": [{"measurement": "% GVB (oocytes undergoing germinal vesicle breakdown per total oocytes per ovary), mean±sd", "setting": "[2]; 60 μM with 0.2 mM IBMX", "result": "2.1±1.8", "unit": "%"}]}]}
